Test systems include UACC-62 melanoma; TK-10 renal; U251 CNS; COLO 205 colon; HT29 colon; EKVX NSCLC; HS 578T breast; HOP-62 NSCLC; MCF7 breast; RXF 393 renal; KM12 colon; SNB-19 CNS; MOLT-4 leukemia; HCC-2998 colon; SF-295 CNS; OVCAR-8 ovarian; LOX IMVI melanoma; NCI-H226 lung; 786-0 renal; SF-539 CNS.
What all share (assay): growth of human tumour cells (NCI), 48 h

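The compound was tested at five concentrations on cells cultured in 96-well plates, with a 48-hour exposure period. TGI is the concentration that stops growth completely.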

In the case of `O=C(/C=C/c1csc(-c2ccccc2)n1)NCc1ccc(C(=O)NCCc2ccccc2)cc1`, the TGI with UACC-62 melanoma was over 100 µM; with TK-10 renal it was 38.2 µM; with U251 CNS it was over 100 µM; in the assay with COLO 205 colon it was over 100 µM; in the assay on HT29 colon, 30.4 µM; in the assay on EKVX NSCLC, over 100 µM. For the same molecule, the TGI with HS 578T breast was over 100 µM; with HOP-62 NSCLC it was 6.86 µM; in the assay on MCF7 breast, over 100 µM; in the assay on RXF 393 renal it was 23.4 µM; with KM12 colon, over 100 µM; in the assay with SNB-19 CNS, 49.1 µM. The TGI is over 100 µM in the assay on MOLT-4 leukemia; over 100 µM in the assay with HCC-2998 colon; 30.9 µM in the assay with SF-295 CNS; 63 µM with OVCAR-8 ovarian; over 100 µM with LOX IMVI melanoma; 90.2 µM in the assay on NCI-H226 lung. The molecule further gave a TGI in the assay with 786-0 renal of 32.7 µM.

Take `CCNCCNc1c2ccccc2nc2ccccc12`: the TGI in the assay on UACC-62 melanoma was 3.26 µM; in the assay with TK-10 renal, 23.3 µM; in the assay on COLO 205 colon, 3.42 µM; in the assay on HT29 colon it was over 100 µM; in the assay on EKVX NSCLC it was 21.9 µM; with HS 578T breast, 5.28 µM. The TGI in the assay on HOP-62 NSCLC was 4.21 µM; in the assay with MCF7 breast, 3.4 µM; in the assay on RXF 393 renal it was 3.31 µM; in the assay with KM12 colon it was 4.79 µM; in the assay with SNB-19 CNS, 4.69 µM; with MOLT-4 leukemia, over 100 µM. For the same molecule, the TGI in the assay on HCC-2998 colon came out at 1.09 µM; with SF-295 CNS, 3.3 µM; with SF-539 CNS, 2.21 µM; with OVCAR-8 ovarian, 7.06 µM; with LOX IMVI melanoma it was 2.95 µM; in the assay on 786-0 renal it was 13.4 µM.

In the case of `CCOC(=O)C1=[N+]([O-])OC2=C(O)CCCC21` (stereo not given), the TGI with UACC-62 melanoma, in the assay with TK-10 renal, with U251 CNS, in the assay on COLO 205 colon, in the assay with HT29 colon and with EKVX NSCLC was over 100 µM each time. Further, the TGI in the assay with HS 578T breast, in the assay on HOP-62 NSCLC, in the assay with MCF7 breast, with RXF 393 renal, in the assay on KM12 colon and with SNB-19 CNS was over 100 µM each time. The TGI in the assay with MOLT-4 leukemia, with HCC-2998 colon, with SF-295 CNS, with OVCAR-8 ovarian, with LOX IMVI melanoma and in the assay on NCI-H226 lung was over 100 µM each time. In the assay on 786-0 renal, this molecule showed a TGI of over 100 µM.

With `CC(=O)OCC1OC(SC2=N/C(=C\c3cc4c(=O)c5ccccc5sc4s3)C(=O)N2c2ccccc2)C(OC(C)=O)C(OC(C)=O)C1OC(C)=O` (stereo not given), the TGI with UACC-62 melanoma is over 100 µM; in the assay with TK-10 renal, over 100 µM; in the assay with U251 CNS, 62.8 µM; with COLO 205 colon, over 100 µM; in the assay on HT29 colon, over 100 µM; in the assay on EKVX NSCLC it was over 100 µM. Moreover, the TGI in the assay with HS 578T breast, with HOP-62 NSCLC, with MCF7 breast, in the assay with RXF 393 renal, in the assay with KM12 colon and with SNB-19 CNS was over 100 µM each time. For the same molecule, the TGI with MOLT-4 leukemia was 54.4 µM; in the assay with HCC-2998 colon, over 100 µM; in the assay on SF-295 CNS it was over 100 µM; with OVCAR-8 ovarian it was over 100 µM; in the assay on LOX IMVI melanoma it was over 100 µM; with NCI-H226 lung, over 100 µM. This molecule also registered a TGI with 786-0 renal of over 100 µM.

Consider `N=c1oc2c(Cl)cc(Cl)cc2cc1C(=O)Nc1cccc2ccccc12`, for which the TGI in the assay with UACC-62 melanoma was over 100 µM; in the assay with TK-10 renal it was 4.71 µM; in the assay with U251 CNS, 7.01 µM; with COLO 205 colon it was over 32.7 µM; in the assay with HT29 colon, over 100 µM; with EKVX NSCLC it was over 74.3 µM. Also, the TGI with HS 578T breast was over 53.2 µM; with HOP-62 NSCLC, 42.3 µM; with MCF7 breast, over 100 µM; in the assay on RXF 393 renal, 76.8 µM; in the assay with KM12 colon, over 100 µM; in the assay with SNB-19 CNS, over 78.2 µM. The TGI in the assay with MOLT-4 leukemia was over 37.5 µM; with HCC-2998 colon it was over 59.6 µM; with SF-295 CNS it was 96.9 µM; with OVCAR-8 ovarian, 14.2 µM; in the assay with LOX IMVI melanoma it was over 24 µM; with NCI-H226 lung, 66.2 µM. The same molecule had a TGI in the assay with 786-0 renal of 12.8 µM.

Consider `S=c1sc2c(s1)SCCCCSCCCCSc1sc(=S)sc1SCCCCSCCCCS2`, for which the TGI in the assay on UACC-62 melanoma, with TK-10 renal, in the assay on U251 CNS, in the assay with COLO 205 colon, in the assay with HT29 colon and with EKVX NSCLC was over 100 µM in each case. In addition, the TGI with HS 578T breast, in the assay with HOP-62 NSCLC, in the assay on MCF7 breast, in the assay on KM12 colon, in the assay with SNB-19 CNS and in the assay with MOLT-4 leukemia was over 100 µM each time. Further, the TGI with HCC-2998 colon, in the assay on SF-295 CNS, with SF-539 CNS, with OVCAR-8 ovarian, in the assay with LOX IMVI melanoma and in the assay on NCI-H226 lung was over 100 µM in each case. Besides, the TGI with 786-0 renal was over 100 µM.

On to `O=C(Cc1ccccc1)NNc1nc(NNC(=O)c2ccncc2)nc(Nc2ccc([N+](=O)[O-])cc2)n1`, for which the TGI with UACC-62 melanoma, with TK-10 renal, with U251 CNS, with COLO 205 colon, in the assay on HT29 colon and in the assay with EKVX NSCLC was over 10 µM each time. In addition, the TGI with HS 578T breast, in the assay with HOP-62 NSCLC, in the assay with MCF7 breast, in the assay on KM12 colon, in the assay on SNB-19 CNS and with MOLT-4 leukemia was over 10 µM in each case. The TGI in the assay with HCC-2998 colon, with SF-295 CNS, in the assay with SF-539 CNS, in the assay with OVCAR-8 ovarian, in the assay with LOX IMVI melanoma and in the assay on 786-0 renal was over 10 µM throughout.

On to `NC(=O)c1cc2cc(Cl)cc(Cl)c2oc1=Nc1ccc(F)cc1`, for which the TGI was 63.7 µM with UACC-62 melanoma; 30 µM with TK-10 renal; 41.2 µM in the assay with U251 CNS; 40.6 µM in the assay with COLO 205 colon; over 100 µM with HT29 colon; 34.5 µM with EKVX NSCLC. Further, the TGI in the assay on HS 578T breast is over 100 µM; with HOP-62 NSCLC, over 100 µM; in the assay with MCF7 breast, 45.1 µM; in the assay on RXF 393 renal, 37 µM; in the assay on KM12 colon, over 100 µM; in the assay with SNB-19 CNS, 42.3 µM. For the same molecule, the TGI was 37.1 µM with MOLT-4 leukemia; 48.9 µM in the assay with HCC-2998 colon; 39.3 µM with SF-295 CNS; over 100 µM with OVCAR-8 ovarian; over 100 µM with LOX IMVI melanoma; 43.5 µM with NCI-H226 lung. This molecule also returned a TGI with 786-0 renal of 25.3 µM.

Consider `N#CC12C(=O)N3C(=NC(c4ccccc4)NC3c3ccccc3)C1(C#N)C(c1ccccc1)NC1=C2CCC1` (stereo not given), for which the TGI with UACC-62 melanoma, in the assay with TK-10 renal, in the assay on U251 CNS, with COLO 205 colon, with HT29 colon and in the assay on EKVX NSCLC was over 100 µM each time. The TGI in the assay with HS 578T breast, in the assay on HOP-62 NSCLC, in the assay with MCF7 breast, with RXF 393 renal, with KM12 colon and with SNB-19 CNS was over 100 µM throughout. The TGI in the assay with MOLT-4 leukemia, in the assay with HCC-2998 colon, with SF-295 CNS, in the assay with OVCAR-8 ovarian, in the assay on LOX IMVI melanoma and in the assay on NCI-H226 lung was over 100 µM throughout. In the assay on 786-0 renal, the TGI was over 100 µM.

On to `C[n+]1c2ccccc2c(C(=O)Nc2ccc(S(=O)(=O)Nc3ccnn3-c3ccccc3)cc2)c2ccccc21`, for which the TGI in the assay with UACC-62 melanoma, in the assay with TK-10 renal, in the assay with U251 CNS, with COLO 205 colon, in the assay on HT29 colon and in the assay on EKVX NSCLC was over 100 µM in each case. For the same molecule, the TGI in the assay with HS 578T breast, in the assay with HOP-62 NSCLC, in the assay with MCF7 breast, with KM12 colon, in the assay on SNB-19 CNS and in the assay with MOLT-4 leukemia was over 100 µM in each case. For the same molecule, the TGI with HCC-2998 colon, in the assay with SF-295 CNS, in the assay with SF-539 CNS, with OVCAR-8 ovarian, with LOX IMVI melanoma and in the assay on NCI-H226 lung was over 100 µM in each case. The molecule further showed a TGI with 786-0 renal of over 100 µM.

For the molecule `CCCCCCCCCCCC(=O)Oc1c(Cl)cc(Cl)c(OC(=O)C(=O)Oc2c(Cl)cc(Cl)c(OC(=O)CCCCCCCCCCC)c2Cl)c1Cl`, the TGI with UACC-62 melanoma, with TK-10 renal, with U251 CNS, with COLO 205 colon, with HT29 colon and in the assay with EKVX NSCLC was over 100 µM in each case. Also, the TGI in the assay on HS 578T breast, with HOP-62 NSCLC, in the assay on MCF7 breast, in the assay on RXF 393 renal, with KM12 colon and in the assay with SNB-19 CNS was over 100 µM throughout. For the same molecule, the TGI with MOLT-4 leukemia, with SF-295 CNS, with OVCAR-8 ovarian, with LOX IMVI melanoma and in the assay with 786-0 renal was over 100 µM each time.

The values are drawn from PubChem BioAssay (NCI).
